Test results published in US20220380319A1 (Bial - R&D Investments, S.A., priority 2019, published 2022).
Converted amounts (≈) assume the structure as drawn.

How the values were obtained:
[1] = Compound solubility in water
[2] = target: T1, acid ceramidase (Homo sapiens, UniProt Q13510); test: Acid ceramidase inhibition, biochemical fluorescent assay with cell lysates overexpressing acid ceramidase, substrate Rbm14-12; details: substrate Rbm14-12 6.3 μM, pH 4.5
T1 construct: Cell lysates overexpressing acid ceramidase were used as the enzyme source; expressed in transfected cells
T1 sequence (Q13510 22-395): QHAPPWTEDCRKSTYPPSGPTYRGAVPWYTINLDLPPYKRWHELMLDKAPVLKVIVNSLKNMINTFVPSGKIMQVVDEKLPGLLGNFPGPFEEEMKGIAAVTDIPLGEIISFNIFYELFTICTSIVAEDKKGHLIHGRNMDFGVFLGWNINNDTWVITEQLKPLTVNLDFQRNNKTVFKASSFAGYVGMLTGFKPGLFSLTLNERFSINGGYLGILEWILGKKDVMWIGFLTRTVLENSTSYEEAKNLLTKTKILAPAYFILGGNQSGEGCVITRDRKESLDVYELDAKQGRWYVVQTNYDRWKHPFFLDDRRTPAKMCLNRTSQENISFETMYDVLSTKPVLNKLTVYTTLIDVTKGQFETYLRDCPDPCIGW
Summary of the method: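 Lysate of cells overexpressing acid ceramidase (10 μg protein) preincubated with compound dose series 1 hr at RT in 25 mM NaAC, 100 mM NaCl, pH 4.5, then reacted 1 hr with 6.3 μM Rbm14-12. Stopped with NaIO4/glycine buffer pH 10.6, fluorescence ex360/em446; IC50 by four-parameter fit.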

Row | Structure (SMILES) | solubility [1] [µg/mL] | IC50 [2] [nM]
1 | CC(C)C#CCNC(=O)n1cnc2c(N3CCC4CN(C)CC4CC3)cccc21 (centres unmarked) [Example 312, 4-(2-Methyloctahydropyrrolo[3,4-d]azepin-6(1H)-yl)-N-(4-methylpent-2-yn-1-yl)-1H-benzo[d]imidazole-1-carboxamide] | 24 (≈ 61 µM) | < 200
2 | CC(C)C#CCNC(=O)n1cnc2c(N3CCC4(CC3)CCN4C)cccc21 [Example 313, 4-(1-Methyl-1,7-diazaspiro[3.5]nonan-7-yl)-N-(4-methylpent-2-yn-1-yl)-1H-benzo[d]imidazole-1-carboxamide] | 29 (≈ 76.4 µM) | < 200
3 | CN1CCN(C2CN(c3cccc4c3ncn4C(=O)NCCOc3ccccc3)C2)CC1 [Example 314, 4-(3-(4-Methylpiperazin-1-yl)azetidin-1-yl)-N-(2-phenoxyethyl)-1H-benzo[d]imidazole-1-carboxamide] | 35 (≈ 80.5 µM) | < 200
4 | CNC1CCN(c2cccc3c2ncn3C(=O)NCCOc2ccccc2)C1 (centres unmarked) [Example 315, 4-(3-(Methylamino)pyrrolidin-1-yl)-N-(2-phenoxyethyl)-1H-benzo[d]imidazole-1-carboxamide] | 30 (≈ 79.1 µM) | < 200
5 | O=C(NCCOc1ccccc1)n1cnc2c(N3CCN4CCCC4C3)cccc21 (centres unmarked) [Example 316, 4-(Hexahydropyrrolo[1,2-a]pyrazin-2(1H)-yl)-N-(2-phenoxyethyl)-1H-benzo[d]imidazole-1-carboxamide] | 27 (≈ 66.6 µM) | < 200
6 | CN1CCN(c2cccc3c2ncn3C(=O)NCCOc2ccccc2)CC1CC#N (centres unmarked) [Example 317, 4-(3-(Cyanomethyl)-4-methylpiperazin-1-yl)-N-(2-phenoxyethyl)-1H-benzo[d]imidazole-1-carboxamide] | 26 (≈ 62.1 µM) | < 200
7 | CN1CCN(C2CN(c3cccc4c3ncn4C(=O)NCCC3CCC(F)(F)C3)C2)CC1 (centres unmarked) [Example 318, N-(2-(3,3-Difluorocyclopentyl)ethyl)-4-(3-(4-methylpiperazin-1-yl)azetidin-1-yl)-1H-benzo[d]imidazole-1-carboxamide] | 40 (≈ 89.6 µM) | 200 to 1000
8 | COc1nc2cc(N3CCN(C4CN(C)C4)CC3)c(F)cc2n1C(=O)NCCCc1ccccc1 [Example 319a, 6-Fluoro-2-methoxy-5-(4-(1-methylazetidin-3-yl)piperazin-1-yl)-N-(3-phenylpropyl)-1H-benzo[d]imidazole-1-carboxamide] | 35 (≈ 72.8 µM) | 200 to 1000
9 | COc1nc2cc(F)c(N3CCN(C4CN(C)C4)CC3)cc2n1C(=O)NCCCc1ccccc1 [Example 319b, 5-fluoro-2-methoxy-6-(4-(1-methylazetidin-3-yl)piperazin-1-yl)-N-(3-phenylpropyl)-1H-benzo[d]imidazole-1-carboxamide] | 46 (≈ 95.7 µM) | 200 to 1000
10 | COc1nc2cc(N3CCN(C4CN(C)C4)CC3)c(F)cc2n1C(=O)NCC#CC(C)C [Example 320a, 6-Fluoro-2-methoxy-5-(4-(1-methylazetidin-3-yl)piperazin-1-yl)-N-(4-methylpent-2-yn-1-yl)-1H-benzo[d]imidazole-1-carboxamide] | 33 (≈ 74.6 µM) | > 1000
11 | COc1nc2cc(F)c(N3CCN(C4CN(C)C4)CC3)cc2n1C(=O)NCC#CC(C)C [Example 320b, 5-fluoro-2-methoxy-6-(4-(1-methylazetidin-3-yl)piperazin-1-yl)-N-(4-methylpent-2-yn-1-yl)-1H-benzo[d]imidazole-1-carboxamide] | 42 (≈ 94.9 µM) | 200 to 1000
12 | COc1nc2cc(N3CCOCC3)c(F)cc2n1C(=O)NCC#CC(C)C [Example 321a, 6-Fluoro-2-methoxy-N-(4-methylpent-2-yn-1-yl)-5-morpholino-1H-benzo[d]imidazole-1-carboxamide] | 2 (≈ 5.34 µM) | 200 to 1000
13 | COc1nc2cc(F)c(N3CCOCC3)cc2n1C(=O)NCC#CC(C)C [Example 321b, 5-fluoro-2-methoxy-N-(4-methylpent-2-yn-1-yl)-6-morpholino-1H-benzo[d]imidazole-1-carboxamide] | 3 (≈ 8.01 µM) | 200 to 1000
